Reference: patent US12221422B2, “Compounds and their use for the treatment of alpha1-antitrypsin deficiency” (CENTESSA PHARMACEUTICALS (UK) LIMITED, priority 2018, dated 2025)

How the values were obtained:
human Z A1AT = human Z A1AT (Homo sapiens, UniProt P01009, E366K); assay: A1AT cell secretion assay using HEK-Z cells (ELISA); assay type: cell-based; set-up: expressed in transfected cells; host or cells: HEK-Z (HEK-EBNA cells containing the Z A1AT plasmid); conditions: HEK-Z cells, 10, 33, 100 and 333 nM, 48 h, cell supernatant
human Z A1AT, sequence (P01009 25-418 E366K): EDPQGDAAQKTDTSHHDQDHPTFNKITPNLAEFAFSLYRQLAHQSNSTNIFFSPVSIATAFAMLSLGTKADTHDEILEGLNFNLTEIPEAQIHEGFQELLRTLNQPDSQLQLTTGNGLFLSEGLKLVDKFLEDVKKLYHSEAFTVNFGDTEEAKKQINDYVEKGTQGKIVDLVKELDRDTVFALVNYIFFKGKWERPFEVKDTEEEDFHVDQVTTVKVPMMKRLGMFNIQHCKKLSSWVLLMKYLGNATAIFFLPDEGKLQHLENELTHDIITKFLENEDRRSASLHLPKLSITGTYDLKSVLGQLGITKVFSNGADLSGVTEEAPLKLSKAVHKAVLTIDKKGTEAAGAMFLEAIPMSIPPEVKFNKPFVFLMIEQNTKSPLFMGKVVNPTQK
Method: HEK-Z cells, a human embryonic kidney cell line stably transfected with the human Z A1AT gene, were plated into 96 well plates (3.0×10^5 cells/ml with 200 μl of media/well) overnight at 37° C. in a humidified atmosphere containing 5% CO2. Following incubation cells were washed with 200 μl serum-free media three times and media was replaced with treatments in quadruplicate using serum-free media containing either vehicle, 10 μM suberanilohydroxamic acid (SAHA), N,N-dimethyl-4-((6-oxopyrimidin-1(6H)-yl)methyl)benzamide (at concentrations of 10, 33, 100 and 333 nM), N,N-(bis-methyl-d3)-4-((6-oxopyrimidin-1(6H)-yl)methyl)benzamide (at concentrations of 10, 33, 100 and 333 nM) or N-methyl-4-((6-oxopyrimidin-1(6H)-yl)methyl)benzamide (at concentrations of 10, 33, 100 and 333 nM) for 48 h in a 37° C. incubator in a final volume of 200 μl. At the end of the incubation step the supernatants were removed from the wells, centrifuged at 1000×g at 4° C. for 10 min and were assayed for human A1AT levels by ELISA (Human Serpin A1/α1-antitrypsin duo set ELISA, R& D Systems, DY1268) per manufacturer's instructions.
(§1) Briefly, a 96 well plate was coated with human A1AT capture antibody overnight at room temperature (1:180 dilution from stock, 100 μl final volume/well). The capture antibody was then removed and wells washed three times with 300 μl wash buffer (0.05% Tween 20 in PBS) and then 200 μl reagent diluent (25% Tween 20 in PBS) was incubated in each well for 1 h at room temperature. […] After which, 50 μl stop solution (2M H2SO4) was added and optical density (OD) of each well was read at 450 nm with 570 nm blank subtracted from each well using a microplate reader. A 4 parameter logistic curve was constructed using GraphPad Prism 7 and A1AT concentrations were determined in each sample by interpolation from a standard curve and multiplying by the appropriate dilution factor.
(§2) The amount of A1AT secreted from transfected HEK-EBNA cells into the media was measured by ELISA. […]

Pharmacokinetics in rats = assay type: in vivo; conditions: rat, whole blood, Sprague Dawley rats, iv 2 mg/kg or oral 10 mg/kg; for half-life: read-out: Half-life in blood (t1/2); for clearance: read-out: Observed clearance; for Vd: read-out: Volume of distribution (Vz)
Method: Compounds were administered to Sprague Dawley rats intravenously (2 mg/kg) or orally (10 mg/kg) by gavage. Whole blood diluted with water was prepared from these dosed animals over a time course up to 24 hours post dose to allow blood concentrations of drug to be measured by UPLC-MS/MS.

human Siiyama A1AT = target: T1, human Siiyama A1AT (Homo sapiens, UniProt P01009, S77F); assay: A1AT cell secretion assay using HEK-Siiyama cells (ELISA); assay type: cell-based; conditions: 10 μM, 48 h, positive control
T1 construct: expressed in transfected cells; host or cells: HEK-Siiyama (HEK-EBNA cells containing the Siiyama A1AT plasmid)
T1 sequence (P01009 25-418 S77F): as the sequence (P01009 25-418 E366K) above, with S53F, K342E counted along it
Method: (§3) HEK-Siiyama cells, a human embryonic kidney cell line stably transfected with the human Siiyama A1AT gene, were plated into 96 well plates (3.0×10^5 cells/ml with 200 μl of media/well) overnight at 37° C. in a humidified atmosphere containing 5% CO2. Following incubation cells were washed with 200 μl serum-free media three times and media was replaced with serum-free media containing either vehicle, 10 μM suberanilohydroxamic acid (SAHA) or a compound of the invention (at 1 or 10 μM) in replicates of eight for 48 h in a 37° C. incubator in a final volume of 200 μl. […]
as §1, with “volume/well).” for “volume/well). The capture antibody was then removed and wells washed three times with 300 μl wash buffer (0.05% Tween 20 in PBS) and then 200 μl reagent diluent (25% Tween 20 in PBS) was incubated in each well for 1 h at room temperature.”
The amount of human A1AT secreted from transfected HEK-EBNA cells into the media was measured by ELISA. […]

human M A1AT = target: T2, human M A1AT (Homo sapiens, UniProt P01009); assay: A1AT cell secretion assay using HEK-M cells (ELISA); assay type: cell-based; conditions: 10 μM, 48 h
T2 construct: expressed in transfected cells; host or cells: HEK-M (HEK-EBNA cells containing the M A1AT plasmid)
T2 sequence (P01009 25-418): as the sequence (P01009 25-418 E366K) above, with K342E counted along it
Method: as §3, with “HEK-M” for “HEK-Siiyama”, “M” for “Siiyama”, “(at” for “(at 1 or”, “six” for “eight”
as §1, with “volume/well).” for “volume/well). The capture antibody was then removed and wells washed three times with 300 μl wash buffer (0.05% Tween 20 in PBS) and then 200 μl reagent diluent (25% Tween 20 in PBS) was incubated in each well for 1 h at room temperature.”
as §2

Structure (SMILES)	secretion of Z A1AT as measured by ELISA (human Z A1AT)	half-life (Pharmacokinetics in rats) [min]	clearance (Pharmacokinetics in rats) [mL/min/kg]	Vd (Pharmacokinetics in rats) [L/kg]	secretion of Siiyama A1AT as measured by ELISA (human Siiyama A1AT)	secretion of M A1AT as measured by ELISA (human M A1AT)
[2H]C([2H])([2H])N(C(=O)c1ccc(Cn2cnccc2=O)cc1)C([2H])([2H])[2H] [N,N-(bis-methyl-d3)-4-((6-oxopyrimidin-1(6H)-yl)methyl)benzamide]	stimulates secretion of Z A1AT in a dose dependent manner	52	10.6	0.72	–	–
CNC(=O)c1ccc(Cn2cnccc2=O)cc1 [N-methyl-4-((6-oxopyrimidin-1(6H)-yl)methyl)benzamide]	stimulates secretion of Z A1AT in a dose dependent manner	63	10.6	1	–	–
O=C(CCCCCCC(=O)Nc1ccccc1)NO [SAHA, suberanilohydroxamic acid, reference compound]	–	–	–	–	stimulates an increase in Siiyama A1AT secretion	stimulates an increase in M A1AT secretion
